The values below are quoted from earlier work in patent publication US20220016116A1, “DETERMINING DRUG COMBINATIONS, SYNERGISTIC DRUG COMBINATION AND USE THEREOF IN PANCREATIC CANCER TREATMENT” (Innoplexus AG, priority 2020, published 2022).

Each structure is given as a SMILES string.

The conditions of data set [1]: independent of drug concentrations from 250 ng/mL to 1000 ng/mL.
The target in data set [2] is human epidermal growth factor receptor (EGFR) family (EGFR/HER1, HER2, and HER4) tyrosine kinases. The following applies: read-out: IC50 (affinity).
Where [3] appears, read: 45 mg orally once daily, CV 35%.

Usually IC50 stands for the point on the concentration scale where inhibition reaches its midpoint. In the case of `COc1cc2ncnc(Nc3ccc(F)c(Cl)c3)c2cc1NC(=O)/C=C/CN1CCCCC1` [Dacomitinib, (2E)-N-16-4-(piperidin-1-yl) but-2-enamide], the “bound to plasma proteins” value in data set [1] is recorded as 98%. In addition, the IC50 in data set [2] was 6 nM. Further, under setting [3], the “Cmax, geometric mean” value was 108 ng/mL and the “area under the concentration-time curve (AUC)” value is given as 2213 ng·h/mL. For the same compound, the volume of distribution (CV 18%) is listed as 1889 L. The mean absolute bioavailability (after oral administration) is 80%. In addition, the “time to reach maximum concentration” value (oral) was “approximately 6.0 h”. For the same compound, in the data set on PDAC cell (through inhibition of EMT markers ZEB1, Snail and N-cadherin), the “cell migration and invasion” value was “attenuated cell migration and invasion”. Further, in the data set with PDAC cell (via inhibition of FOXM1 and its targets Aurora kinase B and cyclin B1), the PDAC cell proliferation result was “diminishes PDAC cell proliferation”. Also, the apoptosis and radio-sensitivity result in the data set on PDAC cell (via inhibition of anti-apoptotic proteins survivin and MCL1) is “induces apoptosis and potentiated radio-sensitivity”.
